Assay results reported in the supplement of paper PMC10307832.

What was measured:
Test in all cases: relative viability (nuclei count vs DMSO), 5 days (fraction); higher = more cells survive
AZD5582 + Pictilisib = compound: C[C@@H](C(=O)N[C@@H](C1CCCCC1)C(=O)N2CCC[C@H]2C(=O)N[C@@H]3[C@@H](CC4=CC=CC=C34)OCC#CC#CCO[C@@H]5CC6=CC=CC=C6[C@@H]5NC(=O)[C@@H]7CCCN7C(=O)[C@H](C8CCCCC8)NC(=O)[C@H](C)NC)NC [AZD5582] + CS(=O)(=O)N1CCN(Cc2cc3nc(-c4cccc5[nH]ncc45)nc(N4CCOCC4)c3s2)CC1 [Pictilisib] (partner 1 µM)
In short: (§1)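 Each reported value is a median over duplicate plates. It expresses relative viability: treated-well nuclei count divided by vehicle-well nuclei count. Lung cancer cell lines in 1536-well plates were dosed by pin tool a day after seeding, alone with one drug or with a fixed anchor-drug dose plus five library-drug doses (not always all listed) in √10 steps, and nuclei were counted after 5 days.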

Temozolomide + Lapatinib = compound: Cn1nnc2c(C(N)=O)ncn2c1=O [Temozolomide] + CS(=O)(=O)CCNCc1ccc(-c2ccc3ncnc(Nc4ccc(OCc5cccc(F)c5)c(Cl)c4)c3c2)o1 [Lapatinib] (partner 2 µM)
In short: as §1

AZD5582 + Lapatinib = compound: C[C@@H](C(=O)N[C@@H](C1CCCCC1)C(=O)N2CCC[C@H]2C(=O)N[C@@H]3[C@@H](CC4=CC=CC=C34)OCC#CC#CCO[C@@H]5CC6=CC=CC=C6[C@@H]5NC(=O)[C@@H]7CCCN7C(=O)[C@H](C8CCCCC8)NC(=O)[C@H](C)NC)NC [AZD5582] + CS(=O)(=O)CCNCc1ccc(-c2ccc3ncnc(Nc4ccc(OCc5cccc(F)c5)c(Cl)c4)c3c2)o1 [Lapatinib] (partner 2 µM)
In short: as §1

Temozolomide + Alpelisib = compound: Cn1nnc2c(C(N)=O)ncn2c1=O [Temozolomide] + Cc1nc(NC(=O)N2CCC[C@H]2C(N)=O)sc1-c1ccnc(C(C)(C)C(F)(F)F)c1 [Alpelisib] (partner 2 µM)
In short: as §1

NCI-H596 was tested, and the relative viability (AZD5582 + Pictilisib; first compound 0.001581 µM) was 0.31, the relative viability (AZD5582 + Pictilisib; first compound 0.005 µM) was 0.348 and the relative viability (AZD5582 + Pictilisib; first compound 0.01581 µM) was 0.413. For the same cell line, the relative viability (AZD5582 + Pictilisib; first compound 0.05 µM) was 0.191, the relative viability (Temozolomide + Lapatinib; first compound 0.2 µM) was 1.3 and the relative viability (Temozolomide + Lapatinib; first compound 0.6325 µM) was 1.11. For the same cell line, the relative viability (Temozolomide + Lapatinib; first compound 2 µM) was 1.26, the relative viability (Temozolomide + Lapatinib; first compound 6.325 µM) was 0.929 and the relative viability (Temozolomide + Lapatinib; first compound 20 µM) was 1.2. The relative viability (AZD5582 + Lapatinib; first compound 0.001581 µM) was 0.851, the relative viability (AZD5582 + Lapatinib; first compound 0.005 µM) was 0.829 and the relative viability (AZD5582 + Lapatinib; first compound 0.01581 µM) was 0.959. For the same cell line, the relative viability (AZD5582 + Lapatinib; first compound 0.05 µM) was 0.326, the relative viability (Temozolomide + Alpelisib; first compound 0.2 µM) was 0.582 and the relative viability (Temozolomide + Alpelisib; first compound 0.6325 µM) was 0.494. For the same cell line, the relative viability (Temozolomide + Alpelisib; first compound 2 µM) was 0.567, the relative viability (Temozolomide + Alpelisib; first compound 6.325 µM) was 0.48 and the relative viability (Temozolomide + Alpelisib; first compound 20 µM) was 0.482.

Cell Line NCI-H647 has a relative viability (AZD5582 + Pictilisib; first compound 0.001581 µM) of 0.388, a relative viability (AZD5582 + Pictilisib; first compound 0.005 µM) of 0.449 and a relative viability (AZD5582 + Pictilisib; first compound 0.05 µM) of 0.458. For the same cell line, the relative viability (Temozolomide + Lapatinib; first compound 0.2 µM) was 1.41, the relative viability (Temozolomide + Lapatinib; first compound 0.6325 µM) was 1.16 and the relative viability (Temozolomide + Lapatinib; first compound 2 µM) was 1.27. It also gave a relative viability (Temozolomide + Lapatinib; first compound 6.325 µM) of 0.891, a relative viability (Temozolomide + Lapatinib; first compound 20 µM) of 0.275 and a relative viability (AZD5582 + Lapatinib; first compound 0.001581 µM) of 0.839. The relative viability (AZD5582 + Lapatinib; first compound 0.005 µM) was 0.943, the relative viability (AZD5582 + Lapatinib; first compound 0.01581 µM) was 0.98 and the relative viability (AZD5582 + Lapatinib; first compound 0.05 µM) was 0.767. It also gave a relative viability (Temozolomide + Alpelisib; first compound 0.2 µM) of 1.43, a relative viability (Temozolomide + Alpelisib; first compound 0.6325 µM) of 1.21 and a relative viability (Temozolomide + Alpelisib; first compound 2 µM) of 1.16. The relative viability (Temozolomide + Alpelisib; first compound 6.325 µM) was 0.866 and the relative viability (Temozolomide + Alpelisib; first compound 20 µM) was 0.238.

Cell Line NCI-H650 has a relative viability (AZD5582 + Pictilisib; first compound 0.001581 µM) of 0.645, a relative viability (AZD5582 + Pictilisib; first compound 0.005 µM) of 0.702 and a relative viability (AZD5582 + Pictilisib; first compound 0.01581 µM) of 0.759. For the same cell line, the relative viability (AZD5582 + Pictilisib; first compound 0.05 µM) was 0.589, the relative viability (Temozolomide + Lapatinib; first compound 0.2 µM) was 1.02 and the relative viability (Temozolomide + Lapatinib; first compound 0.6325 µM) was 0.888. The relative viability (Temozolomide + Lapatinib; first compound 2 µM) was 0.995, the relative viability (Temozolomide + Lapatinib; first compound 6.325 µM) was 1.03 and the relative viability (Temozolomide + Lapatinib; first compound 20 µM) was 1.07. It also gave a relative viability (AZD5582 + Lapatinib; first compound 0.001581 µM) of 0.592, a relative viability (AZD5582 + Lapatinib; first compound 0.005 µM) of 0.787 and a relative viability (AZD5582 + Lapatinib; first compound 0.01581 µM) of 0.428. For the same cell line, the relative viability (AZD5582 + Lapatinib; first compound 0.05 µM) was 0.606, the relative viability (Temozolomide + Alpelisib; first compound 0.2 µM) was 1.18 and the relative viability (Temozolomide + Alpelisib; first compound 0.6325 µM) was 1.19. For the same cell line, the relative viability (Temozolomide + Alpelisib; first compound 2 µM) was 1.13, the relative viability (Temozolomide + Alpelisib; first compound 6.325 µM) was 1.12 and the relative viability (Temozolomide + Alpelisib; first compound 20 µM) was 1.06.

NCI-H661 gave a relative viability (AZD5582 + Pictilisib; first compound 0.001581 µM) of 0.36, a relative viability (AZD5582 + Pictilisib; first compound 0.005 µM) of 0.416 and a relative viability (AZD5582 + Pictilisib; first compound 0.01581 µM) of 0.403. It also gave a relative viability (AZD5582 + Pictilisib; first compound 0.05 µM) of 0.399, a relative viability (Temozolomide + Lapatinib; first compound 0.6325 µM) of 0.599 and a relative viability (Temozolomide + Lapatinib; first compound 2 µM) of 0.506. For the same cell line, the relative viability (Temozolomide + Lapatinib; first compound 6.325 µM) was 0.433, the relative viability (Temozolomide + Lapatinib; first compound 20 µM) was 0.508 and the relative viability (AZD5582 + Lapatinib; first compound 0.001581 µM) was 0.38. The relative viability (AZD5582 + Lapatinib; first compound 0.005 µM) was 0.561, the relative viability (AZD5582 + Lapatinib; first compound 0.01581 µM) was 0.53 and the relative viability (AZD5582 + Lapatinib; first compound 0.05 µM) was 0.716. For the same cell line, the relative viability (Temozolomide + Alpelisib; first compound 0.6325 µM) was 0.618, the relative viability (Temozolomide + Alpelisib; first compound 2 µM) was 0.759 and the relative viability (Temozolomide + Alpelisib; first compound 6.325 µM) was 0.714. For the same cell line, the relative viability (Temozolomide + Alpelisib; first compound 20 µM) was 0.545.

NCI-H727 gave a relative viability (AZD5582 + Pictilisib; first compound 0.001581 µM) of 0.258, a relative viability (AZD5582 + Pictilisib; first compound 0.005 µM) of 0.4 and a relative viability (AZD5582 + Pictilisib; first compound 0.01581 µM) of 0.413. The relative viability (AZD5582 + Pictilisib; first compound 0.05 µM) was 0.257, the relative viability (Temozolomide + Lapatinib; first compound 0.2 µM) was 0.907 and the relative viability (Temozolomide + Lapatinib; first compound 0.6325 µM) was 0.804. For the same cell line, the relative viability (Temozolomide + Lapatinib; first compound 2 µM) was 0.865, the relative viability (Temozolomide + Lapatinib; first compound 6.325 µM) was 0.665 and the relative viability (Temozolomide + Lapatinib; first compound 20 µM) was 0.693. For the same cell line, the relative viability (AZD5582 + Lapatinib; first compound 0.001581 µM) was 0.613, the relative viability (AZD5582 + Lapatinib; first compound 0.005 µM) was 0.868 and the relative viability (AZD5582 + Lapatinib; first compound 0.01581 µM) was 0.822. It also gave a relative viability (AZD5582 + Lapatinib; first compound 0.05 µM) of 0.89, a relative viability (Temozolomide + Alpelisib; first compound 0.2 µM) of 0.655 and a relative viability (Temozolomide + Alpelisib; first compound 0.6325 µM) of 0.511. For the same cell line, the relative viability (Temozolomide + Alpelisib; first compound 2 µM) was 0.533, the relative viability (Temozolomide + Alpelisib; first compound 6.325 µM) was 0.675 and the relative viability (Temozolomide + Alpelisib; first compound 20 µM) was 0.504.
